Among the data in US8314094B2, “Benzoxazinone derivative” (MSD K.K, priority 2007, dated 2012) are IC50 values, retold here.

Molecules are shown by their SMILES.

For orientation: IC50 means the concentration that gives 50% inhibition.

The assay has as its target T1, human LCE (Homo sapiens, UniProt Q9H5J4).
T1 sequence (Q9H5J4 1-265): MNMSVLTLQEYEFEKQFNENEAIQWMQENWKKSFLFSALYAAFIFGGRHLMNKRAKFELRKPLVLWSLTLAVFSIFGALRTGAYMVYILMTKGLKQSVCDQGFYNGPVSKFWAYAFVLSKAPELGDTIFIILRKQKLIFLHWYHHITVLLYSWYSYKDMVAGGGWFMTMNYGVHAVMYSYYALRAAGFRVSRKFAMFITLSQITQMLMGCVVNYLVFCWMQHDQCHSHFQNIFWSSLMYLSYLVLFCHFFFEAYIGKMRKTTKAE
Put plainly: LCE enzymatic activity inhibition test. Type of assay: biochemical. Conditions: human LCE enzyme, palmitoyl-CoA and [14C]-malonyl-CoA as substrates, pH 6.5, 37° C. for 90 minutes. The method, then:
An LCE enzymatic activity inhibition test was carried out by a modified method of Moon (J. Biol. Chem., Vol. 276, pp. 45358-45366, (2001)) et al. That is, the diluted test compound was added to a 96-well assay plate (Corning, 96-Well Assay Block) in an amount of 1.0 μL per well, and thereafter, 50 μL of a phosphate buffer solution (a 100 mM potassium phosphate buffer solution (pH 6.5)), 25 μL of a substrate solution (a 100 mM potassium phosphate buffer solution (pH 6.5), 4.0 μM rotenone, 80 μM fatty acid-free bovine serum albumin, 160 μM palmitoyl-CoA, 80 μM malonyl-CoA, 3.5 μM [^14C]-malonyl-CoA (1.92 GBq/mmol, manufactured by Amersham, Inc.)) was added to each well, and further, 25 μL of an enzyme solution (a 100 mM potassium phosphate buffer solution (pH 6.5), 100 μg/mL human LCE) was added thereto. Then, the upper part of the plate was hermetically closed with a seal member, and the plate was incubated at 37° C. for 90 minutes while gently shaking and stirring. Thereafter, to each well, 100 μL of 5 N HCl was added and the assay plate was stirred at room temperature for 5 minutes, whereby the enzymatic reaction was stopped and also acyl-CoA was hydrolyzed. Thereafter, the enzymatic reaction solution in each well was adsorbed to each well of a 96-well GF/C filter plate (PerkinElmer, Unifilter 96GF/C) through which water had been passed in advance, and then, each well was washed with water to remove unadsorbed malonyl-CoA and the GF/C filter plate was dried at 50° C. for 60 minutes. Thereafter, to each well, 30 μL of a scintillator (PerkinElmer, Microscinti 0) was added and the upper part of the plate was sealed, and the radioactivity of the fixed [^14C] was measured using a microplate scintillation counter (PerkinElmer, Top Count) from which the enzymatic activity was determined The human LCE enzyme inhibitory activity of the test compound was calculated using the radioactivity obtained from a well to which DMSO containing no test compound is added as a control.

For `O=C1Nc2ccc(Cl)cc2C(CCNC(=O)c2ccc(F)cc2)(C(F)(F)F)O1` (single isomer, unassigned) [Example 32, N-{2-[(4R*)-6-chloro-2-oxo-4-(trifluoromethyl)-1,4-dihydro-2H-3,1-benzoxazin-4-yl]ethyl}-4-fluorobenzamide], half-maximal inhibition (IC50) was put at 22 nM.

Take `O=C1Nc2ccc(Cl)cc2C(CCCNC(=O)c2ccc(F)cc2)(C(F)(F)F)O1` (single isomer, unassigned) [Example 33, N-{3-[(4R*)-6-chloro-2-oxo-4-(trifluoromethyl)-1,4-dihydro-2H-3,1-benzoxazin-4-yl]propyl}-4-fluorobenzamide]: 17 nM corresponded to half-maximal inhibition (IC50).

In turn, `O=C1Nc2ccc(Cl)cc2C(CCCNS(=O)(=O)c2ccccn2)(C(F)(F)F)O1` (single isomer, unassigned) [Example 119, N-{3-[(4R*)-6-chloro-2-oxo-4-(trifluoromethyl)-1,4-dihydro-2H-3,1-benzoxazin-4-yl]propyl}pyridine-2-sulfonamide] had a 50% inhibitory concentration (IC50) of 128 nM.

In the case of `O=C1Nc2ccc(Cl)cc2C(CCNS(=O)(=O)c2ccccn2)(C(F)(F)F)O1` (single isomer, unassigned) [Example 120, N-{2-[(4R*)-6-chloro-2-oxo-4-(trifluoromethyl)-1,4-dihydro-2H-3,1-benzoxazin-4-yl]ethyl}pyridine-2-sulfonamide], half-maximal inhibition (IC50) required 5.4 nM.

As for `Cn1cc(-c2ccc3c(c2)C(CNC(=O)c2ccc(F)cc2)(C(F)(F)F)OC(=O)N3)cn1` (single isomer, unassigned) [Example 133, (4S*)-4-fluoro-N-{[6-(1-methyl-1H-pyrazol-4-yl)-2-oxo-4-(trifluoromethyl)-1,4-dihydro-2H-3,1-benzoxazin-4-yl]methyl}benzamide], inhibition was half-maximal at 119 nM (IC50).

Take `O=C1Nc2ccc(-c3cc[nH]n3)cc2C(CNS(=O)(=O)c2ccc(F)cc2)(C(F)(F)F)O1` (single isomer, unassigned) [Example 150, 4-fluoro-N-{[(4S*)-2-oxo-6-(1H-pyrazol-3-yl)-4-(trifluoromethyl)-1,4-dihydro-2H-3,1-benzoxazin-4-yl]methyl}benzenesulfonamide]: the IC50 is 17 nM.

As to `O=C1Nc2ccc(-c3cc[nH]n3)cc2C(CNS(=O)(=O)c2ccccn2)(C(F)(F)F)O1` (single isomer, unassigned) [Example 151, N-{[(4S*)-2-oxo-6-(1H-pyrazol-3-yl)-4-(trifluoromethyl)-1,4-dihydro-2H-3,1-benzoxazin-4-yl]methyl}pyridine-2-sulfonamide], the IC50 stood at 16 nM.

`O=C1Nc2ccc(-c3ccn[nH]3)cc2C(CNC(=O)c2ccc(F)cc2)(C(F)(F)F)N1` (single isomer, unassigned) [Example 182, 4-fluoro-N-{[(4S*)-2-oxo-6-(1H-pyrazol-5-yl)-4-(trifluoromethyl)-1,2,3,4-tetrahydroquinazolin-4-yl]methyl}benzamide] showed an IC50 of 6.6 nM.

On to `O=C1Nc2ccc(Cl)cc2C(CNC(=O)c2ccc(F)cc2)(C(F)(F)F)N1` (single isomer, unassigned) [Example 187, N-{[(4S*)-6-chloro-2-oxo-4-(trifluoromethyl)-1,2,3,4-tetrahydroquinazolin-4-yl]methyl}4-fluorobenzamide], for which it took 45 nM to reach half-maximal inhibition (IC50).

Consider `O=C1Nc2ccc(-c3ccco3)cc2C(CNC(=O)c2ccc(F)cc2)(C(F)(F)F)O1` (stereo not shown) [Example 146, 4-fluoro-N-{[6-(2-furyl)-2-oxo-4-(trifluoromethyl)-1,4-dihydro-2H-3,1-benzoxazin-4-yl]methyl}benzamide], for which the half-maximal inhibitory concentration (IC50) amounted to 14 nM.

In the case of `O=C1Nc2ccc(-c3cccs3)cc2C(CNC(=O)c2ccc(F)cc2)(C(F)(F)F)O1` (stereo not shown) [Example 147, 4-fluoro-N-{[2-oxo-6-(2-thienyl)-4-(trifluoromethyl)-1,4-dihydro-2H-3,1-benzoxazin-4-yl]methyl}benzamide], the IC50 is 13 nM.

Turning to `CN1CCN(c2ccc3c(c2)C(CNC(=O)c2ccc(F)cc2)(C(F)(F)F)OC(=O)N3)C1=O` (stereo not shown) [Example 174, 4-fluoro-N-{[6-(3-methyl-2-oxazolidin-1-yl)-2-oxo-4-(trifluoromethyl)-1,4-dihydro-2H-3,1-benzoxazin-4-yl]methyl}benzamide], it took 5.3 nM to reach half-maximal inhibition (IC50).

In turn, `Cc1ccn(-c2ccc3c(c2)C(CNC(=O)c2ccc(F)cc2)(C(F)(F)F)OC(=O)N3)n1` (stereo not shown) [Example 178, 4-fluoro-N-{[6-(3-methyl-1H-pyrazol-1-yl)-2-oxo-4-(trifluoromethyl)-1,4-dihydro-2H-3,1-benzoxazin-4-yl]methyl}benzamide] gave a concentration for half-maximal inhibition (IC50) of 7.3 nM.
